Experimental data as given in the supplement of paper PMC10307832.

Legend:
Experiment in all cases: relative viability (nuclei count vs DMSO), 5 days (fraction); higher = more cells survive
RAF265 + Pictilisib = compound: Cn1c(Nc2ccc(C(F)(F)F)cc2)nc2cc(Oc3ccnc(-c4ncc(C(F)(F)F)[nH]4)c3)ccc21 [RAF265] + CS(=O)(=O)N1CCN(Cc2cc3nc(-c4cccc5[nH]ncc45)nc(N4CCOCC4)c3s2)CC1 [Pictilisib] (partner 1 µM)
Method in brief: (§1)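 Relative viability is defined as nuclei in treated wells over nuclei in vehicle wells. Duplicate plates were run and medians reported. Lung cancer cell lines in 1536-well plates were dosed by pin tool one day after seeding, with one drug or with a fixed anchor-drug dose plus five library-drug doses (not always all listed) in √10 steps, and nuclei were counted after 5 days.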

IPA-3 + Tozasertib = compound: C1=CC=C2C(=C1)C=CC(=C2SSC3=C(C=CC4=CC=CC=C43)O)O [IPA-3] + Cc1cc(Nc2cc(N3CCN(C)CC3)nc(Sc3ccc(NC(=O)C4CC4)cc3)n2)n[nH]1 [Tozasertib] (partner 0.1 µM)
Method in brief: as §1

Doramapimod + OSI-027 = compound: Cc1ccc(-n2nc(C(C)(C)C)cc2NC(=O)Nc2ccc(OCCN3CCOCC3)c3ccccc23)cc1 [Doramapimod] + COc1cccc2cc(-c3nc([C@H]4CC[C@H](C(=O)O)CC4)n4ncnc(N)c34)[nH]c12 [OSI-027] (partner 0.5 µM)
Method in brief: as §1

RAF265 + Vorinostat = compound: Cn1c(Nc2ccc(C(F)(F)F)cc2)nc2cc(Oc3ccnc(-c4ncc(C(F)(F)F)[nH]4)c3)ccc21 [RAF265] + O=C(CCCCCCC(=O)Nc1ccccc1)NO [Vorinostat] (partner 1 µM)
Method in brief: as §1

Cell Line	relative viability (RAF265 + Pictilisib; first compound 0.01 µM)	relative viability (RAF265 + Pictilisib; first compound 0.03162 µM)	relative viability (RAF265 + Pictilisib; first compound 0.1 µM)	relative viability (RAF265 + Pictilisib; first compound 0.3162 µM)	relative viability (RAF265 + Pictilisib; first compound 1 µM)	relative viability (IPA-3 + Tozasertib; first compound 0.2 µM)	relative viability (IPA-3 + Tozasertib; first compound 0.6325 µM)	relative viability (IPA-3 + Tozasertib; first compound 2 µM)	relative viability (IPA-3 + Tozasertib; first compound 6.325 µM)	relative viability (IPA-3 + Tozasertib; first compound 20 µM)	relative viability (Doramapimod + OSI-027; first compound 0.02 µM)	relative viability (Doramapimod + OSI-027; first compound 0.06325 µM)	relative viability (Doramapimod + OSI-027; first compound 0.2 µM)	relative viability (Doramapimod + OSI-027; first compound 0.6325 µM)	relative viability (Doramapimod + OSI-027; first compound 2 µM)	relative viability (RAF265 + Vorinostat; first compound 0.01 µM)	relative viability (RAF265 + Vorinostat; first compound 0.03162 µM)	relative viability (RAF265 + Vorinostat; first compound 0.1 µM)	relative viability (RAF265 + Vorinostat; first compound 0.3162 µM)	relative viability (RAF265 + Vorinostat; first compound 1 µM)
201T	0.717	0.7	0.685	0.564	0.552	0.99	1	0.908	0.922	1.06	0.629	0.785	0.71	0.782	0.781	0.975	0.966	0.998	0.974	0.994
A549	0.476	0.498	0.391	0.235	0.0846															
A-427	0.738	0.531	0.797	0.395	0.15	0.18	0.242	0.201	0.224	0.248	0.435	0.498	0.578		0.402	0.89	0.829	0.892	0.733	0.423
ABC-1	0.808	0.58	0.608	0.525	0.458	0.18	0.183	0.19	0.188	0.185	0.613	0.451	0.433	0.655	0.51	1.34	0.853	1.3	0.982	0.644
BEN	0.627	0.696	0.69	0.625	0.55	0.528	0.582	0.48	0.5	0.588	0.317	0.309	0.33	0.236	0.316	0.569	0.586	0.6	0.662	0.544
CAL-12T	0.359	0.407	0.293	0.278	0.223	0.371	0.301	0.384	0.343	0.297	0.627	0.672	0.579	0.711	0.532	0.781	0.825	0.61	0.606	0.372
COR-L23	0.874	0.663	0.626	0.368	0.323	0.197	0.201	0.344	0.25	0.165	0.688	0.892	0.84	0.806	0.621	0.487	0.297	0.392	0.268	0.248
COR-L 105	0.487	0.316	0.383	0.292	0.307	0.335	0.463	0.32	0.403	0.342	0.799	0.745	0.703	0.771	0.612	1.03	0.896	0.845	0.725	0.495
Calu-6	0.87	0.594	0.462	0.306	0.209															
ChaGo-K-1	0.786	0.833	0.8	0.765	0.56	0.228	0.236	0.231	0.221	0.251	0.632	0.607	0.63	0.518	0.409	0.783	0.826	0.727	0.635	0.578
EBC-1	0.375	0.386	0.233	0.317	0.221															
EKVX	0.425	0.414	0.429	0.242	0.334	0.463	0.42	0.447	0.375	0.422	0.718	0.684	0.679	0.671	0.698	0.775	0.659	0.87		0.581
EMC-BAC-2	0.494	0.513	0.496	0.386	0.228	0.279	0.296	0.312	0.303	0.269	0.379	0.396	0.445	0.571	0.43	0.449	0.359	0.306	0.141	0.103
EPLC-272H	0.35	0.349	0.311	0.237	0.191	0.441	0.338	0.332	0.311	0.506	0.32	0.297	0.306	0.316	0.295	0.503	0.472	0.318	0.22	0.113
H3255	0.494	0.512	0.522	0.132	0.336	0.595	0.655	0.652	0.602	0.741	0.684	0.618	0.526	0.679	0.518	0.889	0.748	0.804	0.231	0.413
HARA	0.367	0.267	0.271	0.287	0.134	0.133	0.132	0.153	0.485	0.118	0.482	0.371	0.392		0.327	0.454	0.64	0.537	0.546	0.192
HCC-15	0.805	0.625	0.645	0.49	0.333	0.61	0.367	0.457	0.431	0.442	0.688	0.645	0.68		0.539	0.803	0.937	0.867	0.782	0.551
HCC-44	0.631	0.697	0.55	0.507	0.561	1.09	0.953	0.996	0.71	0.93	0.563	0.607	0.625	0.463	0.433	1.02	1.07	1.19	1.08	1.06
HCC-78	0.224	0.216	0.291	0.171	0.145	0.508	0.429	0.448	0.402	0.398	0.372	0.362	0.365	0.358	0.299	0.459	0.485	0.464	0.645	0.406
HCC-366	0.18	0.211	0.181	0.189	0.147	0.176	0.132	0.0972	0.141	0.0773	0.837	0.918	0.937	1.08	0.853	0.307	0.344	0.252	0.205	0.146

Cell Line	relative viability (RAF265 + Pictilisib; first compound 0.01 µM)	relative viability (RAF265 + Pictilisib; first compound 0.03162 µM)	relative viability (RAF265 + Pictilisib; first compound 0.1 µM)	relative viability (RAF265 + Pictilisib; first compound 0.3162 µM)	relative viability (RAF265 + Pictilisib; first compound 1 µM)	relative viability (IPA-3 + Tozasertib; first compound 0.2 µM)	relative viability (IPA-3 + Tozasertib; first compound 0.6325 µM)	relative viability (IPA-3 + Tozasertib; first compound 2 µM)	relative viability (IPA-3 + Tozasertib; first compound 6.325 µM)	relative viability (IPA-3 + Tozasertib; first compound 20 µM)	relative viability (Doramapimod + OSI-027; first compound 0.02 µM)	relative viability (Doramapimod + OSI-027; first compound 0.06325 µM)	relative viability (Doramapimod + OSI-027; first compound 0.2 µM)	relative viability (Doramapimod + OSI-027; first compound 0.6325 µM)	relative viability (Doramapimod + OSI-027; first compound 2 µM)	relative viability (RAF265 + Vorinostat; first compound 0.01 µM)	relative viability (RAF265 + Vorinostat; first compound 0.03162 µM)	relative viability (RAF265 + Vorinostat; first compound 0.1 µM)	relative viability (RAF265 + Vorinostat; first compound 0.3162 µM)	relative viability (RAF265 + Vorinostat; first compound 1 µM)
HCC-827	0.99	1.04	1.05		0.571	0.446	0.423	0.402	0.442	0.438	0.715	0.762	0.756	0.763	0.544	0.866	0.808	0.543		0.704
HOP-62	0.641		0.726	0.426	0.179	0.388	0.312	0.395	0.382	0.402	0.828	0.81	0.906	0.923	0.741	0.664	0.542	0.56	0.507	0.332
IA-LM	0.334	0.402	0.341	0.336	0.186											1.06	0.779	0.895	0.925	0.849
LC-2-ad	0.441	0.361	0.223	0.171	0.0927	0.48	0.467	0.531	0.424	0.458	0.897	0.811	0.891	0.827	0.671	0.774	0.7	0.729	0.596	0.387
LCLC-97TM1	0.177	0.172	0.112	0.145	0.107	0.255	0.178	0.259	0.216	0.189	0.533	0.412	0.517	0.437	0.432	0.719	0.508	0.544	0.525	0.421
LCLC-103H	0.616	0.615	0.638	0.431	0.422	0.582	0.528	0.577	0.443	0.539	0.444	0.424	0.386	0.422	0.396	0.844	0.892	0.683	0.565	0.422
LK-2	0.528	0.669	0.604	0.531	0.403	0.168	0.192	0.176	0.142	0.155	0.204	0.152	0.18	0.158	0.186	0.361	0.245	0.328	0.404	0.2
LOU-NH91	0.529	0.487	0.495	0.481	0.474	0.649	0.669	0.649	0.656	0.742	0.776	0.752	0.738	0.769	0.559	1	0.807	0.926	0.755	0.712
LU99A	0.324	0.269	0.233	0.21	0.187	0.325	0.255	0.213	0.267	0.239	0.299	0.341	0.261	0.344	0.272	0.515	0.447	0.402	0.286	0.261
LXF-289	0.857	0.655	0.577	0.361	0.374	0.23	0.164	0.218	0.186	0.192	0.765	0.762	0.72	0.686	0.605	0.768	0.752	0.754	0.606	0.571
NCI-H522						0.596	0.535	0.72	0.621	0.565	0.667	0.705	0.767	0.68	0.656	0.841	1.02	1.05	0.872	0.857
NCI-H1299	0.683	0.407	0.223	0.246	0.198															
NCI-H1563	0.648	0.742	0.626	0.604	0.718						0.739	0.765	0.733	0.761	0.73					
NCI-H1623						0.418	0.433	0.432	0.47	0.433	0.47	0.475	0.478	0.457	0.397					
NCI-H1648						0.753	0.545	0.646	0.391	0.482	0.249	0.254	0.257	0.26	0.268	0.464	0.539	0.352	0.317	0.263
NCI-H1703	0.239	0.214	0.218	0.238	0.196															
NCI-H1792	0.277	0.279	0.223	0.166	0.0856						0.634	0.672	0.628	0.702	0.534					
NCI-H2342						0.526	0.505	0.6	0.57	0.596	0.622	0.657	0.614	0.776	0.542	0.714	0.809	0.851	0.667	0.764
SW 900						0.56	0.53	0.496	0.566	0.56	0.547	0.579	0.858	0.599	0.523	0.544	0.494	0.503	0.381	0.227
